The compounds below were run on ALOMY (blackgrass) (assay: Post-Emergent Test III (Wheat and Barley)). Details: Alopecurus myosuroides, post-emergence, 504 h; 35 g ai/ha, postemergence; read-out: Visual Growth Reduction (%) 21 Days After Application, ALOMY.
Type: in vivo, Alopecurus myosuroides
Protocol: (§1) Seeds of the desired test plant species were planted in Sun Gro MetroMix® 306 planting mixture, which typically has a pH of 6.0 to 6.8 and an organic matter content of about 30 percent, in plastic pots with a surface area of 103.2 square centimeters (cm^2). When required to ensure good germination and healthy plants, a fungicide treatment and/or other chemical or physical treatment was applied. The plants were grown for 7-36 days in a greenhouse with an approximate 14 h photoperiod which was maintained at about 18° C. during the day and 17° C. during the night. Nutrients and water were added on a regular basis and supplemental lighting was provided with overhead metal halide 1000-Watt lamps as necessary. The plants were employed for testing when they reached the second or third true leaf stage.
(§2) A weighed amount, determined by the highest rate to be tested, of each test compound was placed in a 25 mL glass vial and was dissolved in 4 mL of a 97:3 v/v mixture of acetone and DMSO to obtain concentrated stock solutions. […] The concentrated stock solutions obtained were diluted with 20 mL of an aqueous mixture containing acetone, water, isopropyl alcohol, DMSO, Agri-Dex crop oil concentrate, and X-77 surfactant in a 48:39:10:1.5:1.5:0.02 v/v ratio to obtain spray solutions containing the highest application rates. Additional application rates were obtained by serial dilution of 12 mL of the high rate solution into a solution containing 2 mL of 97:3 v/v mixture of acetone and DMSO and 10 mL of an aqueous mixture containing acetone, water, isopropyl alcohol, DMSO, Agri-Dex crop oil concentrate, and X-77 surfactant in a 48:39:10:1.5:1.5:0.02 v/v ratio to obtain ½×, ¼×, ⅛× and 1/16× rates of the high rate. Compound requirements are based upon a 12 mL application volume at a rate of 187 liters per hectare (L/ha). Formulated compounds were applied to the plant material with an overhead Mandel track sprayer equipped with 8002E nozzles calibrated to deliver 187 L/ha over an application area of 0.503 square meters at a spray height of 18 inches (43 cm) above the average plant canopy height. Control plants were sprayed in the same manner with the solvent blank.
(§3) The treated plants and control plants were placed in a greenhouse as described above and watered by subirrigation to prevent wash-off of the test compounds. After 21 dAYS, the condition of the test plants as compared with that of the untreated plants was determined visually and scored on a scale of 0 to 100 percent where 0 corresponds to no injury and 100 corresponds to complete kill and presented as indicated in Table A.
(§4) By applying the well-accepted probit analysis as described by J. Berkson in Journal of the American Statistical Society, 48, 565 (1953) and by D. Finney in “Probit Analysis” Cambridge University Press (1952), herbicidal injury of a specific compound at various rates can be used to calculate GR10, GR20, GR50, GR80 and GR90 values, which are defined as growth reduction factors that correspond to the effective dose of herbicide required to provide plant growth reduction (GR) of 10 percent, 20 percent, 50 percent, 80 percent and 90 percent, respectively. Probit analysis was applied to data collected from multiple dose rates of individual compounds utilizing the procedures explained in the following examples. The analysis of those dose rates is captured in the following tables.
With `Nc1c(F)c(-c2ccc(OC(F)F)nc2)nc(C(=O)O)c1Cl` [Compound 66] the pest or weed control at 35 g/ha was 0 to 29%.

Same assay, conditions: Alopecurus myosuroides, post-emergence, 504 h; 70 g ai/ha, postemergence; read-out: Visual Growth Reduction (%) 21 Days After Application, ALOMY
`Nc1c(F)c(-c2ccc(OC(F)F)nc2)nc(C(=O)O)c1Cl` [Compound 66] showed a pest or weed control at 70 g/ha of 0 to 29%.

Same assay, conditions: Alopecurus myosuroides, post-emergence, 504 h; 140 g ai/ha, postemergence; read-out: Visual Growth Reduction (%) 21 Days After Application, ALOMY
With `Nc1c(F)c(-c2ccc(OC(F)F)nc2)nc(C(=O)O)c1Cl` [Compound 66] the pest or weed control at 140 g/ha was 45 to 59%.

Same assay, conditions: effective dose for growth reduction of 50 percent, probit analysis
For `Nc1c(F)c(-c2ccc(OC(F)F)nc2)nc(C(=O)O)c1Cl` [Compound 66], the “GR50, ALOMY” value was 140 g ai/ha.

Same assay, conditions: effective dose for growth reduction of 80 percent, probit analysis
`Nc1c(F)c(-c2ccc(OC(F)F)nc2)nc(C(=O)O)c1Cl` [Compound 66] was tested, and the “GR80, ALOMY” value was over 140 g ai/ha.

What follows are compounds tested on APESV (windgrass) (assay: Post-Emergent Test III (Wheat and Barley)). Details: Apera spica-venti, post-emergence, 504 h; 35 g ai/ha, postemergence; read-out: Visual Growth Reduction (%) 21 Days After Application, APESV.
Type: in vivo, Apera spica-venti
Protocol: as §1, §2, §3, §4
With `Nc1c(F)c(-c2ccc(OC(F)F)nc2)nc(C(=O)O)c1Cl` [Compound 66] the pest or weed control at 35 g/ha was 0 to 29%.

Same assay, conditions: Apera spica-venti, post-emergence, 504 h; 70 g ai/ha, postemergence; read-out: Visual Growth Reduction (%) 21 Days After Application, APESV
Work on `Nc1c(F)c(-c2ccc(OC(F)F)nc2)nc(C(=O)O)c1Cl` [Compound 66] yielded a pest or weed control at 70 g/ha of 0 to 29%.

Same assay, conditions: Apera spica-venti, post-emergence, 504 h; 140 g ai/ha, postemergence; read-out: Visual Growth Reduction (%) 21 Days After Application, APESV
`Nc1c(F)c(-c2ccc(OC(F)F)nc2)nc(C(=O)O)c1Cl` [Compound 66] gave a pest or weed control at 140 g/ha of 60 to 74%.

Same assay, conditions: effective dose for growth reduction of 50 percent, probit analysis
`Nc1c(F)c(-c2ccc(OC(F)F)nc2)nc(C(=O)O)c1Cl` [Compound 66] was tested, and the “GR50, APESV” value was 130 g ai/ha.

Same assay, conditions: effective dose for growth reduction of 80 percent, probit analysis
In the case of `Nc1c(F)c(-c2ccc(OC(F)F)nc2)nc(C(=O)O)c1Cl` [Compound 66], the “GR80, APESV” value is reported as over 140 g ai/ha.

These compounds were tested on TRZSS (assay: Post-Emergent Test III (Wheat and Barley)). Details: Triticum aestivum, post-emergence, 504 h; 35 g ai/ha, postemergence; read-out: Visual Growth Reduction (%) 21 Days After Application, TRZSS.
Type: in vivo
Protocol: as §1, §2, §3, §4
`Nc1c(F)c(-c2ccc(OC(F)F)nc2)nc(C(=O)O)c1Cl` [Compound 66] showed a pest or weed control at 35 g/ha of 75 to 84%.

Same assay, conditions: Triticum aestivum, post-emergence, 504 h; 70 g ai/ha, postemergence; read-out: Visual Growth Reduction (%) 21 Days After Application, TRZSS
With `Nc1c(F)c(-c2ccc(OC(F)F)nc2)nc(C(=O)O)c1Cl` [Compound 66] the pest or weed control at 70 g/ha was 85 to 94%.

Same assay, conditions: Triticum aestivum, post-emergence, 504 h; 140 g ai/ha, postemergence; read-out: Visual Growth Reduction (%) 21 Days After Application, TRZSS
In the case of `Nc1c(F)c(-c2ccc(OC(F)F)nc2)nc(C(=O)O)c1Cl` [Compound 66], the pest or weed control at 140 g/ha is reported as 95 to 100%.

Same assay, conditions: effective dose for growth reduction of 20 percent, probit analysis
With `Nc1c(F)c(-c2ccc(OC(F)F)nc2)nc(C(=O)O)c1Cl` [Compound 66] the “GR20, TRZSS” value was 8 g ai/ha.

These compounds were tested on LOLSS (assay: Post-Emergent Test III (Wheat and Barley)). Details: effective dose for growth reduction of 50 percent, probit analysis.
Type: in vivo
Protocol: as §1, §2, §3, §4
For `Nc1c(F)c(-c2ccc(OC(F)F)nc2)nc(C(=O)O)c1Cl` [Compound 66], the “GR50, LOLSS” value was over 140 g ai/ha.

Same assay, conditions: effective dose for growth reduction of 80 percent, probit analysis
With `Nc1c(F)c(-c2ccc(OC(F)F)nc2)nc(C(=O)O)c1Cl` [Compound 66] the “GR80, LOLSS” value was over 140 g ai/ha.

Same assay, conditions: post-emergence, 504 h; 35 g ai/ha, postemergence; read-out: Visual Growth Reduction (%) 21 Days After Application, LOLSS
`Nc1c(F)c(-c2ccc(OC(F)F)nc2)nc(C(=O)O)c1Cl` [Compound 66] showed a pest or weed control at 35 g/ha of 0 to 29%.

Same assay, conditions: post-emergence, 504 h; 70 g ai/ha, postemergence; read-out: Visual Growth Reduction (%) 21 Days After Application, LOLSS
`Nc1c(F)c(-c2ccc(OC(F)F)nc2)nc(C(=O)O)c1Cl` [Compound 66] gave a pest or weed control at 70 g/ha of 0 to 29%.

Same assay, conditions: post-emergence, 504 h; 140 g ai/ha, postemergence; read-out: Visual Growth Reduction (%) 21 Days After Application, LOLSS
`Nc1c(F)c(-c2ccc(OC(F)F)nc2)nc(C(=O)O)c1Cl` [Compound 66] was tested, and the pest or weed control at 140 g/ha was 30 to 44%.

What follows are compounds tested on HORSS (assay: Post-Emergent Test III (Wheat and Barley)). Details: Hordeum vulgare, post-emergence, 504 h; 35 g ai/ha, postemergence; read-out: Visual Growth Reduction (%) 21 Days After Application, HORSS.
Type: in vivo
Protocol: as §1, §2, §3, §4
`Nc1c(F)c(-c2ccc(OC(F)F)nc2)nc(C(=O)O)c1Cl` [Compound 66] was tested, and the pest or weed control at 35 g/ha was 60 to 74%.

Same assay, conditions: Hordeum vulgare, post-emergence, 504 h; 70 g ai/ha, postemergence; read-out: Visual Growth Reduction (%) 21 Days After Application, HORSS
`Nc1c(F)c(-c2ccc(OC(F)F)nc2)nc(C(=O)O)c1Cl` [Compound 66] showed a pest or weed control at 70 g/ha of 60 to 74%.

Same assay, conditions: Hordeum vulgare, post-emergence, 504 h; 140 g ai/ha, postemergence; read-out: Visual Growth Reduction (%) 21 Days After Application, HORSS
`Nc1c(F)c(-c2ccc(OC(F)F)nc2)nc(C(=O)O)c1Cl` [Compound 66] showed a pest or weed control at 140 g/ha of 85 to 94%.

Same assay, conditions: effective dose for growth reduction of 20 percent, probit analysis
For `Nc1c(F)c(-c2ccc(OC(F)F)nc2)nc(C(=O)O)c1Cl` [Compound 66], the “GR20, HORSS” value was 15 g ai/ha.

Each compound was assayed on KCHSC (kochia) (assay: Post-Emergent Test III (Wheat and Barley)). Details: Bassia scoparia, post-emergence, 504 h; 35 g ai/ha, postemergence; read-out: Visual Growth Reduction (%) 21 Days After Application, KCHSC.
Type: in vivo, Kochia scoparia
Protocol: as §1, §2, §3, §4
`Nc1c(F)c(-c2ccc(OC(F)F)nc2)nc(C(=O)O)c1Cl` [Compound 66] was tested, and the pest or weed control at 35 g/ha was 0 to 29%.

Same assay, conditions: Bassia scoparia, post-emergence, 504 h; 70 g ai/ha, postemergence; read-out: Visual Growth Reduction (%) 21 Days After Application, KCHSC
Compound `Nc1c(F)c(-c2ccc(OC(F)F)nc2)nc(C(=O)O)c1Cl` [Compound 66] has a pest or weed control at 70 g/ha of 45 to 59%.

Same assay, conditions: Bassia scoparia, post-emergence, 504 h; 140 g ai/ha, postemergence; read-out: Visual Growth Reduction (%) 21 Days After Application, KCHSC
`Nc1c(F)c(-c2ccc(OC(F)F)nc2)nc(C(=O)O)c1Cl` [Compound 66] showed a pest or weed control at 140 g/ha of 60 to 74%.

Same assay, conditions: effective dose for growth reduction of 50 percent, probit analysis
In the case of `Nc1c(F)c(-c2ccc(OC(F)F)nc2)nc(C(=O)O)c1Cl` [Compound 66], the “GR50, KCHSC” value is reported as 80 g ai/ha.

Same assay, conditions: effective dose for growth reduction of 80 percent, probit analysis
With `Nc1c(F)c(-c2ccc(OC(F)F)nc2)nc(C(=O)O)c1Cl` [Compound 66] the “GR80, KCHSC” value was over 140 g ai/ha.

Reference: patent US10765114B2, “4-amino-6-(pyridyl and 2-substitutedphenyl)-picolinates and 6-amino-2-(pyridyl and 2-substitutedphenyl)-pyrimidine-4-carboxylates and their use as herbicides” (Dow AgroSciences LLC, priority 2013, dated 2020)
